Measurements reported in the kinase profiling compilation of Christmann-Franck et al. (2016).
Values joined by “and” are separate entries in the source; they are usually repeats but may differ in a detail not shown here. Equal values may be shown once.

Tests used:
Test in all cases: radiometric filter-binding kinase assay, Kinase HotSpot
Details in all cases: compound 0.5 µM; ATP 10 µM
[1] = target: ADRBK2 (human) (UniProt P35626)
[2] = target: AXL (human) (UniProt P30530)
[3] = target: BRSK1 (human) (UniProt Q8TDC3)
[4] = target: CDK9 CCNT1 (human) (UniProt P50750+O60563)
[5] = target: CLK3 (human) (UniProt P49761)
[6] = target: CLK4 (human) (UniProt Q9HAZ1)
Sequence of CLK4 (human) (Q9HAZ1 whole entry, looked up): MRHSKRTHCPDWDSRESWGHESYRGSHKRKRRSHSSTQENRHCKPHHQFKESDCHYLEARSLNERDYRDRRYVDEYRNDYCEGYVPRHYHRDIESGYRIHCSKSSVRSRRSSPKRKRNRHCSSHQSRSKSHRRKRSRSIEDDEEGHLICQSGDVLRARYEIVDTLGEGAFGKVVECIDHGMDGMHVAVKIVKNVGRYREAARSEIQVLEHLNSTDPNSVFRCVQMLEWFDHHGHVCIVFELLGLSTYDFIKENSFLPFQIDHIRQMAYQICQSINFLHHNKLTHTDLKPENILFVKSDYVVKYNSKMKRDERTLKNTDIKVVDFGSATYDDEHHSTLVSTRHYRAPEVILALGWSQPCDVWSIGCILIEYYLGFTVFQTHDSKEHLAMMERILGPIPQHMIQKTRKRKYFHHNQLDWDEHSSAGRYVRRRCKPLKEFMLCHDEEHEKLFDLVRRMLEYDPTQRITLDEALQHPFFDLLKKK

[7] = target: EPHB2 (human) (UniProt P29323)
[8] = target: FGFR3 (human) (UniProt P22607)
[9] = target: GRK4 (human) (UniProt P32298)
[10] = target: IRAK4 (human) (UniProt Q9NWZ3)
Sequence of IRAK4 (human) (Q9NWZ3 whole entry, looked up): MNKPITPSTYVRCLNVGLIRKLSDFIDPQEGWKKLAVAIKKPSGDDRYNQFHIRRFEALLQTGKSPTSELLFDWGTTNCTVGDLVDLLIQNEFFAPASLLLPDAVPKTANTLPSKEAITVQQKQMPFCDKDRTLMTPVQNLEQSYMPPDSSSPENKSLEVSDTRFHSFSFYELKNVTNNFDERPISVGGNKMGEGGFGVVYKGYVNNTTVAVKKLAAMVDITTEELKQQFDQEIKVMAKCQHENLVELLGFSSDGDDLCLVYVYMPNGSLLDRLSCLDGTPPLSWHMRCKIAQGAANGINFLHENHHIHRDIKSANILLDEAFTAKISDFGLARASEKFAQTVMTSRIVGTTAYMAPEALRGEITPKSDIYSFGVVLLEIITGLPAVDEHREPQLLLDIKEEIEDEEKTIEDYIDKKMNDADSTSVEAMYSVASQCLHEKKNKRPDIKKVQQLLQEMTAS

[11] = target: KIT (human) (UniProt P10721)
[12] = target: LYN (human) (UniProt P07948)
Sequence of LYN (human) (P07948 whole entry, looked up): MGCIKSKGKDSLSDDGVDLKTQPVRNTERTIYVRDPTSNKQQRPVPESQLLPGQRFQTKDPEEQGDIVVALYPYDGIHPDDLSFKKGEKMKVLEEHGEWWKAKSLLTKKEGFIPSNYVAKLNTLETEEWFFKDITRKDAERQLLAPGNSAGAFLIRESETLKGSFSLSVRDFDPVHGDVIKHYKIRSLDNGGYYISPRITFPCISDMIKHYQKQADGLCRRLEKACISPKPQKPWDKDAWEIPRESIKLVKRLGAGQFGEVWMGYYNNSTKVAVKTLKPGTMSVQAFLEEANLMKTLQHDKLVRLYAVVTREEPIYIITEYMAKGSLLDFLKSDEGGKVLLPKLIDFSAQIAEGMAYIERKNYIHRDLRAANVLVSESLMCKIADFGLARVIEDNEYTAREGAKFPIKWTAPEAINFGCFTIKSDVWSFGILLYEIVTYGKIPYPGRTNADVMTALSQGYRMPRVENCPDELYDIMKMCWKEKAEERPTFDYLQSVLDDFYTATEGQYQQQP

[13] = target: MAPK14 (human) (UniProt Q16539)
[14] = target: MAPK9 (human) (UniProt P45984)
[15] = target: MAPKAPK2 (human) (UniProt P49137)
[16] = target: MELK (human) (UniProt Q14680)
[17] = target: MYO3B (human) (UniProt Q8WXR4)
[18] = target: NEK1 (human) (UniProt Q96PY6)
[19] = target: NEK2 (human) (UniProt P51955)
[20] = target: NTRK1 (human) (UniProt P04629)
[21] = target: NTRK2 (human) (UniProt Q16620)
Sequence of NTRK2 (human) (Q16620 whole entry, looked up): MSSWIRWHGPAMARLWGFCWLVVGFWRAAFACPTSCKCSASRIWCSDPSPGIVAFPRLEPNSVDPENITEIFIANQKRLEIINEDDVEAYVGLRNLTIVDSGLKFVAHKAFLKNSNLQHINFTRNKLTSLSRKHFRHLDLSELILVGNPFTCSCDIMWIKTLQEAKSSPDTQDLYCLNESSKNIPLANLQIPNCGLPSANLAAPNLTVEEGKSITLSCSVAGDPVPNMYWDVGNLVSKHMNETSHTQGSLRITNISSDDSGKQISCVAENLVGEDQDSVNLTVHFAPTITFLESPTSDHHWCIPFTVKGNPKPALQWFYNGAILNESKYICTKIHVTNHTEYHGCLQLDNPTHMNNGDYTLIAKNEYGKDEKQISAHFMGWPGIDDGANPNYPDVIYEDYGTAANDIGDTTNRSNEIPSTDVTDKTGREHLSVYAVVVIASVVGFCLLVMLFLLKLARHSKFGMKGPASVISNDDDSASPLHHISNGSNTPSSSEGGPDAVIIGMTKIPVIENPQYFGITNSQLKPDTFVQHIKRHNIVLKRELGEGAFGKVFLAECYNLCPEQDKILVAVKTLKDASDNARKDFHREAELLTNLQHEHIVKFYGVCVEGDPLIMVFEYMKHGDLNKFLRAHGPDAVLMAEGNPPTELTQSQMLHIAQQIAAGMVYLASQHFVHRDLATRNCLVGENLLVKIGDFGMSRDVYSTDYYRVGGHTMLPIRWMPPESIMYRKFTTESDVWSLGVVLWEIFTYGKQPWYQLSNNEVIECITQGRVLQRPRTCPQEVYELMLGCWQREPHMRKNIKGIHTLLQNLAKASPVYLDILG

[22] = target: PAK4 (human) (UniProt O96013)
Sequence of PAK4 (human) (O96013 whole entry, looked up): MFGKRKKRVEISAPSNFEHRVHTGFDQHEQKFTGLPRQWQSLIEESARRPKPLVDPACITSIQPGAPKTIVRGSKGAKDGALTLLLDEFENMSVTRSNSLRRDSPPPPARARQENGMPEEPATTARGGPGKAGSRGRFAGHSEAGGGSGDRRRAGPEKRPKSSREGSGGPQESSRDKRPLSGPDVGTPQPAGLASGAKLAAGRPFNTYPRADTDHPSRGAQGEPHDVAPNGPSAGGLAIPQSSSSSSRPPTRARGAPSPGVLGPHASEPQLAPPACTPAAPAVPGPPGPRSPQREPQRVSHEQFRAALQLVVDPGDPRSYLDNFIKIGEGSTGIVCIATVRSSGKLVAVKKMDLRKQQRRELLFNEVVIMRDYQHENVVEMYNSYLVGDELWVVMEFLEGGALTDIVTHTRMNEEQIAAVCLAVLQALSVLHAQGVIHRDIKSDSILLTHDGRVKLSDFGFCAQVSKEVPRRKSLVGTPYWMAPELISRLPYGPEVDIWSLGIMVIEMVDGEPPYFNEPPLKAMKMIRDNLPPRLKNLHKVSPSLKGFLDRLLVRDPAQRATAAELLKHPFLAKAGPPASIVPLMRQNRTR

[23] = target: PDGFRB (human) (UniProt P09619)
[24] = target: PHKG1 (human) (UniProt Q16816)
[25] = target: PLK3 (human) (UniProt Q9H4B4)
[26] = target: PRKCE (human) (UniProt Q02156)
[27] = target: PRKD2 (human) (UniProt Q9BZL6)
[28] = target: PRKG2 (human) (UniProt Q13237)
[29] = target: PTK6 (human) (UniProt Q13882)
[30] = target: RPS6KA6 KD1 KD2 (human) (UniProt Q9UK32)
Sequence of RPS6KA6 KD1 KD2 (human) (Q9UK32 whole entry, looked up): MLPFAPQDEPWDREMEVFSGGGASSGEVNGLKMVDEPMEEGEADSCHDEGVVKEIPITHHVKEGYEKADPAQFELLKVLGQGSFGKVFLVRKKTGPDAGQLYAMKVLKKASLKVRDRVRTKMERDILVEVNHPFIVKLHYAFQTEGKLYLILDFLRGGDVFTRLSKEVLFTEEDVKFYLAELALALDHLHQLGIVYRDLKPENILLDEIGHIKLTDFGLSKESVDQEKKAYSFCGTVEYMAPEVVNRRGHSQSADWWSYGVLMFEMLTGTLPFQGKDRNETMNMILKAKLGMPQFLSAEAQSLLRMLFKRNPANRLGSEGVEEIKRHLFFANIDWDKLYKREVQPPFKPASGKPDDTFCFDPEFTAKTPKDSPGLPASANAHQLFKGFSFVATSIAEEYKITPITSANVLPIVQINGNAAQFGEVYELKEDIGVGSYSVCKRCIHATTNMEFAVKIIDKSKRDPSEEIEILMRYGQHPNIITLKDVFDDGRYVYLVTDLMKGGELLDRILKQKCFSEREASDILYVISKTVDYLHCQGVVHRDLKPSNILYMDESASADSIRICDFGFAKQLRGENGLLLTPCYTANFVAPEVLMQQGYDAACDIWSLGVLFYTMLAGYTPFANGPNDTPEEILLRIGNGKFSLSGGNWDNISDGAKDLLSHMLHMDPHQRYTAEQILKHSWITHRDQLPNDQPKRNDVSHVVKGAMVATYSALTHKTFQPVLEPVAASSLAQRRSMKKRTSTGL

[31] = target: SLK (human) (UniProt Q9H2G2)
[32] = target: SRMS (human) (UniProt Q9H3Y6)
[33] = target: STK16 (human) (UniProt O75716)
Sequence of STK16 (human) (O75716 whole entry, looked up): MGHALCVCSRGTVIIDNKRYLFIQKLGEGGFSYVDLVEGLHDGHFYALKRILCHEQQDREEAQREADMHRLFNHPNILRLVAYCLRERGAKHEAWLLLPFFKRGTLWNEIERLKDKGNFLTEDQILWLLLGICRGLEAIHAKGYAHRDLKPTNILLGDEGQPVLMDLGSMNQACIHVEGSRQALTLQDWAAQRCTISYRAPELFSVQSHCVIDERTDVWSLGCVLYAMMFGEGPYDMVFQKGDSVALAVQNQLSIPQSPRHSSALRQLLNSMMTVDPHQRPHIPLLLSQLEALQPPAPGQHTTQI

[34] = target: TLK2 (human) (UniProt Q86UE8)
[35] = target: TTK (human) (UniProt P33981)
Sequence of TTK (human) (P33981 whole entry, looked up): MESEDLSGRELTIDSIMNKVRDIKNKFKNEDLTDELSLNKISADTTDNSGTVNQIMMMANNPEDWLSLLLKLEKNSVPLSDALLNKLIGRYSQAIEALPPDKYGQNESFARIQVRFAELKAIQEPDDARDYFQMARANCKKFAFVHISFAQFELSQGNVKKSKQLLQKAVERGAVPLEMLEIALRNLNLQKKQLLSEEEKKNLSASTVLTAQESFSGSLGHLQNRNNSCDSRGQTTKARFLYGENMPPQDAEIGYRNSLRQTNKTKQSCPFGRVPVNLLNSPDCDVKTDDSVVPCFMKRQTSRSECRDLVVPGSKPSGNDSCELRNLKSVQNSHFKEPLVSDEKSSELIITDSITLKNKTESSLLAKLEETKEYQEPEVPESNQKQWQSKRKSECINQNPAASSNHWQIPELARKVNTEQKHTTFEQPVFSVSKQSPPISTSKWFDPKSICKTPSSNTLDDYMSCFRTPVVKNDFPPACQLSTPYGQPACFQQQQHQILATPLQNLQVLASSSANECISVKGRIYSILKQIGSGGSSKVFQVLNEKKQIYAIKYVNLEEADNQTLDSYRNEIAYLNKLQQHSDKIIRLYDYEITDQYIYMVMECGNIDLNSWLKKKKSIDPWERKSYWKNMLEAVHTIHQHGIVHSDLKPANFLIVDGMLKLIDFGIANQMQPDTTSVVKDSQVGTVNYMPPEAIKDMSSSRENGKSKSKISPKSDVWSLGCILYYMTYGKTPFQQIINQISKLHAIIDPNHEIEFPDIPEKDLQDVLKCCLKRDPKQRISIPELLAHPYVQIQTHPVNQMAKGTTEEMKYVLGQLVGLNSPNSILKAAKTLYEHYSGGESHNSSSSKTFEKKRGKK

[36] = target: WEE1 (human) (UniProt P30291)
[37] = target: CSNK1A1 (human) (UniProt P48729)
[38] = target: MAPK3 (human) (UniProt P27361)
[39] = target: MLTK (human) (UniProt Q9NYL2)
[40] = target: NTRK3 (human) (UniProt Q16288)
[41] = target: PTK2 (human) (UniProt Q05397)
[42] = target: SRC (human) (UniProt P12931)

SMILES	residual activity [1]	residual activity [2]	residual activity [3]	residual activity [4]	residual activity [5]	residual activity [6]	residual activity [7]	residual activity [8]	residual activity [9]	residual activity [10]	residual activity [11]	residual activity [12]	residual activity [13]	residual activity [14]	residual activity [15]	residual activity [16]	residual activity [18]	residual activity [19]	residual activity [20]	residual activity [21]	other results
CCN(CC)CCNC(=O)c1c(C)[nH]c(/C=C2\C(=O)Nc3ccc(F)cc32)c1C	94.8%	27.4%	45.1%	88.7%	105%	26.3%	72.1%	39.7%	75.8%	27.4%	8.74%	23% and 34.6%	105%	96.7%	93.2%	10.4%	72.6%	106%	11.5%	9.78%	residual activity [17]: 54.5%; residual activity [22]: 80.9%; residual activity [23]: 17.6%; residual activity [24]: 5.12%; residual activity [25]: 96.5%; residual activity [26]: 98%; residual activity [27]: 21.1%; residual activity [28]: 96.1%; residual activity [29]: 84.5%; residual activity [30]: 17.5%; residual activity [31]: 63.8%; residual activity [32]: 99.6%; residual activity [33]: 55.7%; residual activity [34]: 63.3%; residual activity [35]: 68%; residual activity [36]: 91.8%
COc1ccc2c(c[n+](C)c3c4cc5c(cc4ccc23)OCO5)c1OC	88.4%	98%	90.8%	96.4%	95.2%	89.9%	97.1%	99.1%	94.8%	116%	68.8%	95.4% and 100%	94.1%	102%	103%	89.6%	91.3%	98.6%	89.8%	104%	residual activity [37]: 103%; residual activity [38]: 108%; residual activity [39]: 94.7%; residual activity [40]: 95.2%; residual activity [22]: 99.5%; residual activity [23]: 93.5%; residual activity [24]: 90.4%; residual activity [25]: 100%; residual activity [26]: 93.6%; residual activity [27]: 90.1%; residual activity [28]: 68.7%; residual activity [41]: 102%; residual activity [29]: 94.4%; residual activity [30]: 91.1%; residual activity [31]: 87.4%; residual activity [42]: 91.5%; residual activity [32]: 86%; residual activity [33]: 102%; residual activity [35]: 101%; residual activity [36]: 108%
